“Also recorded” adds a separate entry of the source.
Experiments:
CDK9 [1] = target: T1, CDK9 (Homo sapiens, UniProt P50750); conditions: Olson et al., 2018; cited from earlier work
Target sequence in this assay (P50750 whole entry, species assumed): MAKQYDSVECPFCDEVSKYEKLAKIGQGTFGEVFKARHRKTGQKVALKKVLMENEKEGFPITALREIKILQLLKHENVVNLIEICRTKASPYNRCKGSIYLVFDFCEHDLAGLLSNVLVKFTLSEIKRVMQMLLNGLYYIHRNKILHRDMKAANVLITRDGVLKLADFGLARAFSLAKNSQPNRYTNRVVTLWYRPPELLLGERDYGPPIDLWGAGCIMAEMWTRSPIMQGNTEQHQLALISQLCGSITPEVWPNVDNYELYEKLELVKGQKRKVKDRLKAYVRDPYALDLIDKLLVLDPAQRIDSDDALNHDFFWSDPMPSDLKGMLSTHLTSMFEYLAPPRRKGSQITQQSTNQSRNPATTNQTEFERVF

CDK10 = target: T2, CDK10 (Homo sapiens, UniProt Q15131); conditions: b290: Kinativ screening in MOLT4 lysates (Olson et al., 2018); cited from earlier work
T2 construct: endogenous in cells; host or cells: MOLT4

CDK9 [2] = target: T1, CDK9; conditions: Table 1; b281 prints these figures as IC50; cited from earlier work
Target sequence in this assay (P50750 whole entry, species assumed): as above
Target sequence in this assay (O60563 whole entry partner, species assumed): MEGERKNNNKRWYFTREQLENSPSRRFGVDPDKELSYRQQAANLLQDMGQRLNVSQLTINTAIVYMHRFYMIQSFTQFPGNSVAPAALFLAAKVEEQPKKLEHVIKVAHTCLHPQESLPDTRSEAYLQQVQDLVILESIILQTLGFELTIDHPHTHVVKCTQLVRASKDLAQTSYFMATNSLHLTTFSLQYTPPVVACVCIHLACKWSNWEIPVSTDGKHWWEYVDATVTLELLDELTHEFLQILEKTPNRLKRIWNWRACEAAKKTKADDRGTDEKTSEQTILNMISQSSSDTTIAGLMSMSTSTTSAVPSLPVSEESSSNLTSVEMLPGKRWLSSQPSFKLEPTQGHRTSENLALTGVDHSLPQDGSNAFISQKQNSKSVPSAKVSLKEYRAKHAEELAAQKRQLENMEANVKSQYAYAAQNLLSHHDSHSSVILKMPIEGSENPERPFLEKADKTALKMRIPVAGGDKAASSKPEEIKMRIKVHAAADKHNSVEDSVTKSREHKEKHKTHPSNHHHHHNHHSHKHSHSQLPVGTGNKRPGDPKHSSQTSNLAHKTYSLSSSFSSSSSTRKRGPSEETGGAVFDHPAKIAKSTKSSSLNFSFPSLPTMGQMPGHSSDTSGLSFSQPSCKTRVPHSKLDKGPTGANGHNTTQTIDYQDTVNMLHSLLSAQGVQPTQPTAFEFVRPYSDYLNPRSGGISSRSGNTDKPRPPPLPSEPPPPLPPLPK

CDK9 [3] = target: T1, CDK9; assay: CDK9 degradation in MOLT4 cells (immunoblot); type: cell-based; set-up: endogenous in cells; host or cells: MOLT4, 293T, K562, NCI-H1299, LNCaP; conditions: 6 h treatment
Protocol: All the cell lines were maintained in a humidified incubator at 37° C. and 5% CO2.
Data analysis was performed using GraphPad Prism software (version 9) unless indicated otherwise. All graphs presented represent the mean±standard deviation of the mean (SD) unless otherwise stated.
Target sequence in this assay (P50750 whole entry): as the sequence (P50750 whole entry, species assumed) above

CDK9 [4] = target: T1, CDK9; assay: TMT-based global proteomics in MOLT4 cells; type: cell-based; set-up: endogenous in cells; host or cells: MOLT4; conditions: 0.1 μM 955 for 1 h and 6 h, 1 μM SNS-032 for 6 h
Text: Sample Preparation and LC-MS/MS analysis. Total protein from cell pellets was reduced, alkylated, and purified by chloroform/methanol extraction prior to digestion with sequencing grade modified porcine trypsin (Cat. No. V5111, Promega). Tryptic peptides were labeled using tandem mass tag isobaric labeling reagents (Cat. No. A34808, ThermoFisher) following the manufacturer's instructions and combined into one 11-plex sample group. The labeled peptide multiplex was separated into 46 fractions on a 100×1.0 mm Acquity BEH C18 column (Waters) using an UltiMate 3000 UHPLC system (Thermo) with a 50 min gradient from 99:1 to 60:40 bufferA:B (Buffer A: 0.1% formic acid, 0.5% acetonitrile; Buffer B: 0.1% formic acid, 99.9% acetonitrile. Both buffers adjusted to pH 10 with ammonium hydroxide for offline separation) ratio under basic pH conditions, and then consolidated into 18 super-fractions. […]
Data processing and analysis. Proteins were identified and MS3 reporter ions quantified using MaxQuant (version 2.0.3.0; Max Planck Institute) against the Homo sapiens UniprotKB database (March 2021) with a parent ion tolerance of 3 ppm, a fragment ion tolerance of 0.5 Da, and a reporter ion tolerance of 0.003 Da. Scaffold Q+S (Proteome Software) was used to verify MS/MS based peptide and protein identifications (protein identifications were accepted if they could be established with less than 1.0% false discovery and contained at least 2 identified peptides; protein probabilities were assigned by the Protein Prophet algorithm (Nesvizhskii et al., 2003) and to perform reporter ion-based statistical analysis. Protein TMT MS3 reporter ion intensity values were assessed for quality using ProteiNorm for a systematic evaluation of normalization methods (Graw et al., 2020). Cyclic loess normalization (Ritchie et al., 2015) was utilized since it had the highest intragroup correlation and the lowest variance amongst the samples. […]
Target sequence in this assay (P50750 whole entry): as the sequence (P50750 whole entry, species assumed) above

[5] = test system: LNCaP prostate cancer cells and H1299 lung cancer cells; assay: Cell killing (MTS) with or without KEAP1 siRNA knockdown; type: cell-based, Human; conditions: KEAP1 siRNA vs control siRNA 48 h; compound 0.1 mM (LNCaP) or 0.3 mM (H1299) for 24 h
Protocol: FIGS. 19A to 19B show percentages of cell killing in LNCaP (FIG. 19A) and H1299 (FIG. 19B) cells with or without KEAP1 knockdown. LNCaP and H1299 cells were treated with control siRNA or siRNAs targeting KEAP1 for 48 h and then reseeded and treated with indicated compound (0.1 mM for LNCaP cells and 0.3 mM for H1299 cells) for 24 h. The cell viability was then determined by MTS assay. The data are presented as mean±SD from three replicate cell cultures in a representative experiment. Data are representative of two independent experiments. Statistical significance was calculated with unpaired two-tailed Student's t-tests. **P<0.01; ***P<0.001; NS: not significant.
Viability (MTS) assays in various cancer cells followed the methods described in our previous report (Khan et al., 2019). The data were expressed as average % cell viability and fitted in non-linear regression curves using GraphPad Prism 9 (GraphPad Software, La Jolla, CA, USA).

[6] = test system: LNCaP, 22RV1, PC3 and DU145 prostate cancer cell lines; assay: Viability (MTS) assay in prostate cancer cell lines; type: cell-based, Human; conditions: Homo sapiens, 72 h, read-out: EC50, anti-proliferation
Protocol: All the cell lines were maintained in a humidified incubator at 37° C. and 5% CO2. […] The data were expressed as average % cell viability and fitted in non-linear regression curves using GraphPad Prism 9 (GraphPad Software, La Jolla, CA, USA).

T2 sequence (Q15131 whole entry): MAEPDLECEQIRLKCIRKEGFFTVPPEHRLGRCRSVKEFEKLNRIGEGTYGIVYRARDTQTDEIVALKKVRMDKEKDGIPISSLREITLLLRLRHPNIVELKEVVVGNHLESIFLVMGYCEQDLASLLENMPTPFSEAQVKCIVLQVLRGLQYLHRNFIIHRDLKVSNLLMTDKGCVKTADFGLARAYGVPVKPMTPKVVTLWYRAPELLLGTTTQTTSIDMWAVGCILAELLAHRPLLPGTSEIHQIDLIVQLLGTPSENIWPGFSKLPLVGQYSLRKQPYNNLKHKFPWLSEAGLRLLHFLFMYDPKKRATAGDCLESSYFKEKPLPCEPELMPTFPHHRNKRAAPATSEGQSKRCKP

Row | CDK9 protein level (global proteome) (CDK9 [4]) | EC50 [6] [nM] | Structure (SMILES) | degradation selectivity among SNS-032 targets (CDK9 [1]) | binding of SNS-032 to CDK10 (CDK10) | Binding Affinity, CDK9 (CDK9 [2]) | CDK9 degradation with short-term treatment (CDK9 [3]) | effect of KEAP1 knockdown on cytotoxicity of the compound [5]
1 | – | – | CC(C)(C)c1cnc(CSc2cnc(NC(=O)C3CCN(CC(=O)NCCOCCOCCOCCNc4cccc5c4C(=O)N(C4CCC(=O)NC4=O)C5=O)CC3)s2)o1 (stereo not shown) [THAL-SNS-032] | could only degrade CDK9 but not other known SNS-032 targets | – | – | – | –
2 | no significant effect on CDK9 | > 100 | CC(C)(C)c1cnc(CSc2cnc(NC(=O)C3CCNCC3)s2)o1 [SNS-032, N-(5-(((5-(tert-butyl)oxazol-2-yl)methyl)thio)thiazol-2-yl)piperidine-4-carboxamide, reference compound] | – | very low binding affinity; also recorded: moderate binding | CDK9: 4 nM | no degradation effect; also recorded: could not | no significant effect

From patent publication US20250057963A1, “DISCOVERY OF PIPERLONGUMINE AS A NOVEL E3 LIGASE LIGAND” (University of Florida Research Foundation, Incorporated, priority 2021, published 2025)
